Results: the NIST ThermoML archive (doi:10.1021/je400835u)

Assay: xn = mol fraction of the nth substance listed
Details: 100 kPa, Liquid; for viscosity: Falling or rolling sphere viscometry; for mass density: Vibrating tube method

CCCCC1CCCCC1 [butylcyclohexane] + CCCCCCC
Details	mass density, 293.15 K [kg/m3]	mass density, 298.15 K [kg/m3]	mass density, 303.15 K [kg/m3]	mass density, 308.15 K [kg/m3]	mass density, 313.15 K [kg/m3]	viscosity, 293.15 K [mPa·s]	viscosity, 298.15 K [mPa·s]	viscosity, 303.15 K [mPa·s]	viscosity, 308.15 K [mPa·s]	viscosity, 313.15 K [mPa·s]
x1 = 0.0499	691.14	686.96	682.7	678.43	674.27	0.445	0.422	0.404	0.38	0.365
x1 = 0.0991	698.01	693.86	689.65	685.41	681.26	0.477	0.453	0.432	0.408	0.39
x1 = 0.2001	711.59	707.49	703.36	699.21	695.08	0.537	0.51	0.485	0.463	0.44
x1 = 0.2995	724.33	720.29	716.21	712.12	708.05	0.597	0.564	0.533	0.508	0.484
x1 = 0.4006	736.73	732.74	728.7	724.68	720.66	0.665	0.623	0.59	0.56	0.531
x1 = 0.4984	748.17	744.24	740.26	736.29	732.29	0.741	0.694	0.652	0.617	0.584
x1 = 0.6015	759.68	755.81	751.86	747.93	744	0.832	0.776	0.727	0.685	0.646
x1 = 0.6993	770.09	766.25	762.36	758.5	754.58	0.929	0.865	0.808	0.758	0.713
x1 = 0.7999	780.33	776.52	772.68	768.84	764.98	1.042	0.966	0.9	0.842	0.789
x1 = 0.8999	790.07	786.3	782.5	778.7	774.89	1.172	1.083	1.005	0.936	0.875
x1 = 0.9501	794.82	791.06	787.29	783.51	779.72	1.242	1.146	1.059	0.988	0.922
x1 = 1	799.44	795.7	791.95	788.19	784.41	1.296	1.196	1.107	1.027	0.958

CCCCC1CCCCC1 [butylcyclohexane] + CCCCCCCC
Details	mass density, 293.15 K [kg/m3]	mass density, 298.15 K [kg/m3]	mass density, 303.15 K [kg/m3]	mass density, 308.15 K [kg/m3]	mass density, 313.15 K [kg/m3]	viscosity, 293.15 K [mPa·s]	viscosity, 298.15 K [mPa·s]	viscosity, 303.15 K [mPa·s]	viscosity, 308.15 K [mPa·s]	viscosity, 313.15 K [mPa·s]
x1 = 0.0495	708.15	704.15	700.12	696.06	691.99	0.569	0.547	0.515	0.49	0.464
x1 = 0.1008	713.59	709.59	705.57	701.55	697.5	0.596	0.573	0.54	0.512	0.486
x1 = 0.198	723.69	719.73	715.74	711.75	707.72	0.647	0.619	0.582	0.552	0.524
x1 = 0.3011	734.16	730.24	726.28	722.33	718.33	0.707	0.671	0.63	0.592	0.565
x1 = 0.4008	744.07	740.18	736.26	732.33	728.38	0.771	0.726	0.68	0.638	0.606
x1 = 0.4982	753.55	749.7	745.81	741.91	737.98	0.839	0.784	0.735	0.687	0.652
x1 = 0.5985	763.12	759.29	755.43	751.56	747.67	0.918	0.854	0.799	0.747	0.705
x1 = 0.6997	772.58	768.77	764.94	761.1	757.24	1.004	0.931	0.87	0.814	0.765
x1 = 0.7997	781.72	777.93	774.13	770.31	766.48	1.097	1.014	0.945	0.886	0.83
x1 = 0.9001	790.72	786.95	783.18	779.39	775.59	1.2	1.108	1.029	0.962	0.898
x1 = 0.951	795.17	791.42	787.66	783.88	780.1	1.25	1.156	1.07	0.996	0.93
x1 = 1	799.44	795.7	791.95	788.19	784.41	1.296	1.196	1.107	1.027	0.958

CCCCC1CCCCC1 [butylcyclohexane] + CCCCCCCCC
Details	mass density, 293.15 K [kg/m3]	mass density, 298.15 K [kg/m3]	mass density, 303.15 K [kg/m3]	mass density, 308.15 K [kg/m3]	mass density, 313.15 K [kg/m3]	viscosity, 293.15 K [mPa·s]	viscosity, 298.15 K [mPa·s]	viscosity, 303.15 K [mPa·s]	viscosity, 308.15 K [mPa·s]	viscosity, 313.15 K [mPa·s]
x1 = 0.0496	721.95	718.07	714.19	710.29	706.36	0.745	0.698	0.659	0.621	0.588
x1 = 0.1008	726.12	722.26	718.38	714.48	710.57	0.764	0.718	0.677	0.638	0.603
x1 = 0.2011	734.29	730.45	726.59	722.71	718.81	0.807	0.754	0.712	0.668	0.63
x1 = 0.3005	742.39	738.56	734.71	730.85	726.97	0.852	0.794	0.745	0.698	0.659
x1 = 0.3997	750.46	746.65	742.81	738.96	735.1	0.901	0.836	0.783	0.733	0.692
x1 = 0.4999	758.62	754.82	751	747.17	743.32	0.956	0.885	0.827	0.774	0.729
x1 = 0.5987	766.67	762.89	759.08	755.26	751.43	1.015	0.94	0.876	0.82	0.77
x1 = 0.7011	775.04	771.26	767.46	763.66	759.85	1.081	1.002	0.934	0.873	0.817
x1 = 0.8001	783.13	779.35	775.57	771.78	767.98	1.152	1.068	0.996	0.927	0.866
x1 = 0.8996	791.25	787.5	783.73	779.96	776.17	1.223	1.135	1.052	0.98	0.915
x1 = 0.9504	795.39	791.64	787.88	784.11	780.33	1.262	1.166	1.08	1.005	0.938
x1 = 1	799.44	795.7	791.95	788.19	784.41	1.296	1.196	1.107	1.027	0.958
